This note sets out measurements from patent US10617677B2, “Nuclear transport modulators and uses thereof” (Biogen MA Inc., priority 2012, dated 2020).

Entries after “also recorded” stand apart in the source; their conditions may differ.

The subject of experiment [1] is BCCI injury to the medial frontal cortex. In words: Bilateral controlled cortical impact (BCCI) injury in rats. The class given is in vivo. The method, then:
Bilateral controlled cortical impact (BCCI) injury to the medial frontal cortex (MFC) of male Sprague Dawley rats was induced by a cortical contusion device. After CCI any cortical surface hemorrhaging was controlled, and the fascia and scalp were sutured. Sham-operated rats were anesthetized, mounted in the stereotaxic apparatus, and a craniotomy was performed.
Progesterone 16 mg/mL was dissolved in 22.5% 2-hydroxypropyl-β-cyclodextrin and the initial injection (16 mg/kg) was given i.p. 1 h after injury. The remaining injections (all 16 mg/kg) were given subcutaneously at 6 h post-injury and continued for 5 days after injury. Progesterone injections were made at a concentration of 1 mL/kg. Progesterone was used as a control.
Compound 1 0.2, 0.4, and 0.6 mg/mL was suspended in vehicle (0.6% w/v Pluronic® F-68 and 0.6% w/v PVP K-29/32 in water) and administered p.o at a concentration of 10 mL/kg, 16 h before injury and 2 h after injury, and administrations were continued for 4 days. Control rats received equivalent injections of the vehicle for Compound 1, at the same time points.
The Morris Water Maze (MWM) test is a spatial navigation task that measures learning and memory in rodents using visual cues. Subjects learn over the course of days to find a hidden platform. A MWM test was conducted two weeks after injury. Male Sprague Dawley rats were allowed to swim in the pool until they reached the platform located in the southwest quadrant of a tank, or until 90 seconds had elapsed. Behavior was tracked by a video camera hanging from above the pool and recorded and analyzed using video track software (ANY-maze).
The expression level of several cytokines in plasma harvested from rats in each treatment group was measured. The samples were received frozen and stored at −80° C. On the day of the experiment, the samples were thawed, diluted four-fold, and analyzed for cytokine expression on a Luminex platform. The samples were analyzed for the cytokines GRO/KC, IFNy, IL-1B, IL-6, IL-10, IL-12p70 and TNFa, using a multipliex kit manufactured by Millipore. […] The biggest change was in IL-10.
Quantitative measures of cell density were collected from anti-NeuN immunolabeled subsections from approximately 2-3 mm anterior to bregma. Regions of interest (ROIs) were drawn (blind to experimental condition) around Layers IV-VI in the cortical region adjacent to the injury site in CCI-treated animals or in the equivalent zone (dorsal cortex) in sham animals. An ROI of similar area was also evaluated in a ventral cortical region of the same section. Cell identification was performed using the cell counting module of Keyence BZ-II Analyzer software. Cell-to-gray matter (CG) area coefficients were determined for each ROI. […] The CCI-induced reduction in CG coefficient was mitigated by treatment with Compound 1 in the ventral cortex (−3% compared to sham; p=0.09). Although the effect of Compound 1 versus vehicle treatment in the ventral cortex is not statistically significant, it is anticipated that this effect would breach statistical significance in a larger study. No effect of Compound 1 was detected in the dorsal cortical region (−32% compared to sham) immediately adjacent to the injury site. The difference in the observed effect of Compound 1 on the ventral region versus the dorsal region may be a threshold effect related to the degree of injury, which was inversely related to the distance from the injury site. Thus, the damage to the dorsal cortical region could be too severe to be rescued by Compound 1 under these conditions.
Immunofluorescence was performed to evaluate the impact of TBI on several pathways of immune response, and to determine if Compound 1 might be mediating its neuroprotective effects via one or more of those pathways. […]

In another experiment the test system is obese Zucker rats. In words: Food intake and body weight in Zucker rats. The class given is in vivo. The method, then: Twenty-one (21) male Zucker rats aged 7 months were allocated into 3 groups of N=7 based on equivalent body weights and food intakes. An additional group of N=7 age matched Zucker lean controls were included as a control. Body weights and food and water intakes were measured at approximately the same time each day (14:30-15:30 h). On treatment days, dosing was at 14:30-15:30 h (approximately 2 hours before lights off).
The Zucker obese and lean controls were orally treated with vehicle (10 mL/kg dose volume; 0.5% Pluronic F68 and 0.5% PVP K29/32 in water) on each weekday. Both Compound 2 (1.5 mg/kg and 3 mg/kg) groups were orally treated on each weekday (10 mL/kg dose volume; 0.5% Pluronic F68 and 0.5% PVP K29/32 in water). Prior to the treatment phase, 4 days baseline data were collected. The treatment phase was for 16 days and a washout phase of 6 days was also included.

Where [2] appears, read: 1.5-3 mg/kg oral, 16 day treatment period.

In the case of `CC(C)(C)C(=O)NNC(=O)/C=C\n1cnc(-c2cc(C(F)(F)F)cc(C(F)(F)F)c2)n1` [Compound 1, (Z)-3-(3-(3,5-bis(trifluoromethyl)phenyl)-1H-1,2,4-triazol-1-yl)-N′-pivaloylacrylohydrazide], in experiment [1] (6 mg/kg), the “plasma IL-10” value was “reduced IL-10 compared to vehicle-treated control group” and the “qualitative visual inspection of whole brains (damage to dorsal-medial cortical tissue)” value is “damage ranging from moderate to minimal”. The “latency to find the hidden platform (MWM test), significance” value in experiment [1] (6 mg/kg p.o.) is “significant effects on days 17 and 18 after injury with 6 mg/kg”. Moreover, in experiment [1] (2, 4 and 6 mg/kg p.o.), the “latency to find the hidden platform (MWM test) compared to vehicle-treated BCCI-injured rats” value is “dose dependent decrease in the latency to find the hidden platform”. The “cell-to-gray matter (CG) coefficient, NeuN labeling, compared to sham” value in experiment [1] (dorsal cortical region adjacent to the injury site) is −32%. Further, in experiment [1] (immunofluorescence), the “TNFα immunopositive cells in tissue surrounding the injury site” value is recorded as “largely absent”; the “secondary injury responses (Rat IgG and TNFα labeling)” value was “reduces secondary injury responses”. Moreover, the “cell-to-gray matter (CG) coefficient, NeuN labeling, compared to sham” value in experiment [1] (ventral cortex) is −3%.

In the case of `O=C(/C=C\n1cnc(-c2cc(C(F)(F)F)cc(C(F)(F)F)c2)n1)NNC(=O)CN1CCOCC1` [Compound 2, (Z)-3-(3-(3,5-bis(trifluoromethyl)phenyl)-1H-1,2,4-triazol-1-yl)-N′-(2-morpholinoacetyl)acrylohydrazide], the “body weight gain versus Zucker vehicle group” value with obese Zucker rats (1.5 mg/kg oral) is recorded as “no significant difference in weight gain”. Also, the “body weight gain versus Zucker vehicle group” value in the experiment on obese Zucker rats (3 mg/kg oral) is “significant difference in body weight gain; also recorded: lower weight gain”. For the same compound, in the experiment with obese Zucker rats (setting [2]), the “body weight compared to Zucker control group” value is given as “dose-related decrease”, the “daily food intake compared to Zucker control group” value was “dose-related decrease; also recorded: dose dependent decrease” and the water intake result is reported as “significantly increased water intake”.
